From publication PMC7956430, “Cytotoxicity and Apoptosis Effects of Curcumin Analogue (2E,6E)-2,6-Bis(2,3-Dimethoxybenzylidine) Cyclohexanone (DMCH) on Human Colon Cancer Cells HT29 and SW620 In Vitro” (Molecules, 2021)
Like-named read-outs stand apart in the source and are kept apart here.

How the values were obtained:
[1] = tested on: apoptosis-related proteins in SW620; experiment: Human apoptosis proteome profiler; format: cell-based; details: SW620, DMCH (IC50) for 48 h
Experimental: (§1) Colon cancer cell lines SW620 and HT29 that had been treated with DMCH for 48 h were investigated for the expression profiles of apoptosis-related proteins. This was conducted using the Human Apoptosis Array Kit (R&D Systems, Minneapolis, MN, USA). Firstly, the proteins from both cells were extracted using 600 µL of RIPA buffer (50 mM Tris-HCl, 150 mM NaCl, 1.0% TritonX-100, 0.5% sodium deoxycholate, 0.1% SDS) supplemented with 10 mg of pre-made protease inhibitor cocktails (Roche, Mississauga, ON, Canada). After that, the proteins were quantified using the Bradford assay (Sigma, St. Louis, MO, USA). Then, membranes were blocked by blocking buffer for an hour. At the same time, the proteins were prepared with the addition of 1 mL Lysis Buffer 17 to the protein lysate. The prepared protein was loaded onto the membrane and was incubated at 4 °C overnight. The following day, the membranes were washed three times with 20 mL of wash buffer provided in the kit. Next, the membrane was transferred into a 4-well multi-dish that contains the reconstituted detection antibody cocktails, and it was incubated for an hour on a shaker. Then, the membrane was again washed with a washing buffer three times. Two millilitres of Streptavidin-HRP was added onto the membrane followed by incubation for 30 min. Then, the membrane was washed three times. Afterward, the membrane was loaded with 1.0 mL of Chemi Reagent Mix and then the membrane was scanned using ChemiDoc XRS (Bio-Rad, Hercules, CA, USA).

[2] = tested on: apoptosis-related proteins in HT29; experiment: Human apoptosis proteome profiler; format: cell-based; details: HT29, DMCH (IC50) for 48 h
Experimental: as §1

SW620 [3] = experiment: MTT cell viability assay; format: cell-based; details: Homo sapiens, SW-620
Experimental: (§2) Both SW620 and HT29 cells were grown in an incubator at 37 °C under 5% CO2 condition with their respective media. After the cells were harvested, they were counted and seeded at 1 × 10^5 cells per well in a 96-well plate overnight before being treated with DMCH. The following day, cells were treated with various concentrations of DMCH. […] Following incubation for the designated time period, 20 μL of (5 mg/mL) MTT 3-[4, 5-dimethylthiazol-2-yl]-2, 5 diphenyltetrazolium bromide (Merck, Kenilworth, NJ, USA) reagent was added into each well and then cells were incubated again for another 3 to 4 h. Next, the solution was removed and 100 μL of dimethyl sulfoxide (DMSO) was added into the wells. Afterward, the plate was read at 575 nm using a microtiter plate reader (μQuant, Bio-Tek Instrument, Winooski, VT, USA). The results were analysed as the percentage proliferation of the cells regarding the concentration of the sample treated. The following formula was used to determine the percentage of viable cells:
(§3) Percentage of viability (%) = (Absorbance of sample at 570 nm)/(Absorbance of control at 570 nm) × 100.

HT29 [4] = experiment: MTT cell viability assay; format: cell-based; details: Homo sapiens, HT-29
Experimental: as §2, §3

SW620 [5] = experiment: Annexin V/FITC assay (flow cytometry); format: cell-based, human; details: SW620, 72 h, DMCH at IC50
Experimental: (§4) The apoptosis effect on HT29 and SW620 cells was studied using an Annexin V fluorescence kit (BD Pharmingen, San Diego, CA, USA) according to the manufacturer’s instructions without any modifications. Briefly, cells were seeded for 24 h at a density of 2.0 × 10^5 cells per well in a 6-well plate. Then, the seeded cells were treated with the designated concentrations for 48 h and 72 h. After the 48 h (or 72 h) of treatment, the treated cells were harvested and collected as a pellet. Next, the pellet was resuspended in 400 μL of binding buffer and stained with 5 μL of FITC-Annexin-V and 5 μL of PI provided in the kit. Afterward, the cells were analysed using a Novocyctes flow cytometer (ACEA Biosciences Inc., San Diego, CA, USA).

HT29 [6] = experiment: Annexin V/FITC assay (flow cytometry); format: cell-based, human; details: HT29, 72 h, DMCH at IC50
Experimental: as §4

SW620 [7] = experiment: Acridine orange/propidium iodide (AO/PI) double staining assay; format: cell-based, human; details: SW620, DMCH at IC50, as incubation time increased (48 h, 72 h), p < 0.05
Experimental: (§5) Acridine orange/propidium iodide (AO/PI) double staining assay was performed on colon cancer cell lines to determine the mode of cell death microscopically. HT29 and SW620 cell lines were seeded in a 6-well plate at a density of 2 × 10^5 cells/well. Then, cells were treated with DMCH sample according to 48 h and 72 h concentrations. The treatment-free culture was used as a negative control, and cells were detached and collected at the end of each incubation time. Then, cells were washed with PBS and incubated with a 1:1 ratio of acridine orange (10 µg/mL) and propidium iodide (10 µg/mL). An amount of 10 µL of incubated suspension cells was placed on a slide and viewed immediately under a fluorescent microscope (Nikon FC-35DX, Nikon, Tokyo, Japan).

HT29 [8] = experiment: as above; format: cell-based, human; details: HT29, DMCH at IC50, as incubation time increased (48 h, 72 h), p < 0.05
Experimental: as §5

Splenocyctes = experiment: MTT cell viability assay on normal cells; format: cell-based; details: splenocytes
SW620 [9] = experiment: Cell cycle analysis by flow cytometry; format: cell-based, human
Experimental: (§6) The effect of the DMCH sample on the cell cycle of HT29 and SW620 cells was investigated using flow cytometry cell cycle analysis. Cell cycle assay was carried out using the CycleTEST Plus DNA Reagent Kit according to the instructions (BD Pharmingen, San Diego, CA, USA). The cells were seeded at a density of 2.0 × 10^5 cells/well overnight. Then, cells were treated with different dosages of DMCH based on the concentration results of the MTT assay for 48 h and 72 h. After the treatment, cells were collected, and the pellet was resuspended in 200 μL of trypsin (solution A) and RNAse (solution B) for 10 min each followed by 250 μL of propidium iodide (solution C) for 15 min. After that, flow cytometric analysis was performed within 3 h using a Novocytes flow cytometer (ACEA Biosciences Inc., San Diego, CA, USA).

HT29 [10] = experiment: Cell cycle analysis by flow cytometry; format: cell-based, human; details: HT29, 72 h
Experimental: as §6

[11] = Splenocyte, 24 h, read-out: IC50
[12] = Splenocyte, 48 h, read-out: IC50
[13] = Splenocyte, 72 h, read-out: IC50

## COc1cccc(/C=C2\CCC/C(=C\c3cccc(OC)c3OC)C2=O)c1OC [DMCH, (2E,6E)-2,6-bis(2,3-dimethoxybenzylidene) cyclohexanone]
[1]
  Bad Regulation: Up
  Bax Regulation: Up
  Bcl x Regulation: Up
  Cytochrome c Regulation: Down
  Livin Regulation: Down
  Pro caspase 3 Regulation: Down
  SMAC/Diablo Regulation: Down
[1]; vs control
  Cytochrome c Relative Intensity (Fold Change): −0.900 ± 0.006
  Livin Relative Intensity (Fold Change): −0.900 ± 0.040
  SMAC/Diablo Relative Intensity (Fold Change): −0.900 ± 0.070
[2]
  Bad Regulation: Up
  Bax Regulation: Up
  Bcl x Regulation: Down
  Cytochrome c Regulation: Up
  Livin Regulation: Down
  Pro caspase 3 Regulation: Up
  SMAC/Diablo Regulation: Up
SW620 [3]; SW620, 24 h, read-out: IC50
  IC50: > 30 µM
SW620 [3]; SW620, 48 h, read-out: IC50
  IC50: 7.5 ± 1.19 µM
SW620 [3]; SW620, 72 h, read-out: IC50
  IC50: 5 ± 0.157 µM
SW620 [3]; SW620, as printed in abstract, time not stated, read-out: inhibitory concentration (IC50)
  IC50: 7.5 ± 1.19 µg/mL
HT29 [4]; HT29, 24 h, read-out: IC50
  IC50: > 30 µM
HT29 [4]; HT29, 48 h, read-out: IC50
  IC50: 9.8 ± 0.553 µM
HT29 [4]; HT29, 72 h, read-out: IC50
  IC50: 8.2 ± 0.761 µM
HT29 [4]; HT29, as printed in abstract, time not stated, read-out: inhibitory concentration (IC50)
  IC50: 9.8 ± 0.55 µg/mL
SW620 [5]
  early and late apoptotic/necrotic cells: 15.70 ± 1.03%
HT29 [6]
  early and late apoptotic/necrotic cells: 8.83 ± 0.42%
SW620 [7]
  proportion of cells that exhibited early apoptosis and late apoptosis: significantly higher
HT29 [8]
  proportion of cells that exhibited early apoptosis and late apoptosis: significantly higher
Splenocyctes; [11]
  IC50: > 30 µM
Splenocyctes; [12]
  IC50: > 30 µM
Splenocyctes; [13]
  IC50: > 30 µM
Splenocyctes; 24 h
  IC50: no IC50 values observed
Splenocyctes; 48 h
  IC50: no IC50 values observed
Splenocyctes; 72 h
  IC50: no IC50 values observed
SW620 [9]; SW620, 48 h
  cells in sub-G0/G1 phase: 0.15 ± 0.05%
SW620 [9]; SW620, 72 h
  cells in sub-G0/G1 phase: 73.24 ± 1.65%
HT29 [10]
  cells in sub-G0/G1 phase: 10.96± 0.94%

## COc1cc(/C=C/C(=O)CC(=O)/C=C/c2ccc(O)c(OC)c2)ccc1O [curcumin]
SW620 [3]; SW620, 24 h, read-out: IC50
  IC50: > 30 µM
SW620 [3]; SW620, 48 h, read-out: IC50
  IC50: 18.6 ± 0.321 µM
SW620 [3]; SW620, 72 h, read-out: IC50
  IC50: 15.7 ± 1.52 µM
HT29 [4]; HT29, 24 h, read-out: IC50
  IC50: > 30 µM
HT29 [4]; HT29, 48 h, read-out: IC50
  IC50: 26.7 ± 1.53 µM
HT29 [4]; HT29, 72 h, read-out: IC50
  IC50: 20.7 ± 1.16 µM
Splenocyctes; [11]
  IC50: > 30 µM
Splenocyctes; [12]
  IC50: > 30 µM
Splenocyctes; [13]
  IC50: > 30 µM
